The text below walks through data of ChEMBL document CHEMBL1145279, “Discovery and development of dimeric podocarpic acid leads as potent agonists of liver X receptor with HDL cholesterol raising activity in mice and hamsters” (Bioorg Med Chem Lett, 2005).

Experiment [1] addresses T1, Oxysterols receptor LXR-alpha (Homo sapiens, UniProt Q13133).
T1 sequence (Q13133 whole entry): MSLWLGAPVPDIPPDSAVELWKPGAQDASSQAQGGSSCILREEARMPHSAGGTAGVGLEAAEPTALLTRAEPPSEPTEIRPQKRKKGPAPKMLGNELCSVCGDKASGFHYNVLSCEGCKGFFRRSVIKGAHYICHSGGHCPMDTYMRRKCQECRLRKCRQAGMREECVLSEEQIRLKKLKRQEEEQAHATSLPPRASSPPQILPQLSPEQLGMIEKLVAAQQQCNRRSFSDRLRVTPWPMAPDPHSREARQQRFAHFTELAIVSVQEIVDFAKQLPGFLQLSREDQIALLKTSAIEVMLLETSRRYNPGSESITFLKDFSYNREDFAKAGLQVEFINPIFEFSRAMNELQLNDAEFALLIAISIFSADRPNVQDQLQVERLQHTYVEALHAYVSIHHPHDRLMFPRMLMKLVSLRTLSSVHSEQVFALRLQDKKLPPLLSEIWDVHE
The experiment in a line: Displacement of [3H2]-F3-methyl AA (1) from liver X receptor-alpha in SPA assay.

For experiment [2], the target named is T1, Oxysterols receptor LXR-alpha. The experiment in a line: Effective concentration for cofactor association with recombinant liver X receptor-alpha.
Experiment [3] concerns the target T2, Oxysterols receptor LXR-beta (Homo sapiens, UniProt P55055).
T2 sequence (P55055 whole entry): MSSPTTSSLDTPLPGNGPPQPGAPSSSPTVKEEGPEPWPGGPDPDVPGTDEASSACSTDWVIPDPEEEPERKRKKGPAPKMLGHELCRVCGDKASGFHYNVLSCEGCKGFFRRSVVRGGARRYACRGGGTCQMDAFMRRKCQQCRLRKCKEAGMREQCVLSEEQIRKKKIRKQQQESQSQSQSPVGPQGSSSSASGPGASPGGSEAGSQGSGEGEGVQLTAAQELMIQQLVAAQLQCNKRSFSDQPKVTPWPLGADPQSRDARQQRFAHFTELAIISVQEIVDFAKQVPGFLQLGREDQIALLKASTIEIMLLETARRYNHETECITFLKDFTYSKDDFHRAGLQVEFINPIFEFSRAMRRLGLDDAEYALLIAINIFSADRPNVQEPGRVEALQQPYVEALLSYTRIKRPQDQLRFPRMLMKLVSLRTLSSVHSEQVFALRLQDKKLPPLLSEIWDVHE
The experiment is described as follows: Effective concentration for cofactor association with recombinant liver X receptor-beta.

For experiment [4], the target named is T2, Oxysterols receptor LXR-beta. The experiment is described as follows: Displacement of [3H2]-F3-methyl AA (1) from liver X receptor-beta in SPA assay.
Experiment [5] concerns the target T1, Oxysterols receptor LXR-alpha. The experiment is described as follows: Displacement of [3H2]-F3-methyl AA (1) from liver X receptor-alpha in SPA assay; Not active.
Experiment [6] concerns the target T2, Oxysterols receptor LXR-beta. The experiment in a line: Displacement of [3H2]-F3-methyl AA (1) from liver X receptor-beta in SPA assay; Not active.
The target is the same in experiment [7]. The experiment in a line: Effective concentration for cofactor association with recombinant liver X receptor-beta; Not active.
The target of experiment [8] is T1, Oxysterols receptor LXR-alpha. The experiment is described as follows: Effective concentration for cofactor association with recombinant liver X receptor-alpha; Not active.
Experiment [9] concerns the target T2, Oxysterols receptor LXR-beta. The experiment in a line: Effective concentration against liver X receptor-beta in HEK293 cell transactivation assay. It counts as cell-based.
For experiment [10], the target named is T1, Oxysterols receptor LXR-alpha. The experiment in a line: Effective concentration against liver X receptor-alpha in HEK293 cell transactivation assay. It counts as cell-based.
Experiment [11] concerns the target T3, Oxysterols receptor LXR-alpha (Homo sapiens) (UniProt Q13133).
T3 sequence (whole entry): T1 sequence (Q13133 whole entry)
The experiment in a line: Percent inhibition of [3H2]-F3-methyl AA (1) binding to liver X receptor-alpha at 100 uM.

The target in experiment [12] is T4, Oxysterols receptor LXR-beta (Homo sapiens) (UniProt P55055).
T4 sequence (whole entry): T2 sequence (P55055 whole entry)
The experiment is described as follows: Percent inhibition of [3H2]-F3-methyl AA (1) binding to liver X receptor-beta at 100 uM.

SMILES strings stand for the structures.

Consider `C[C@]1(C(=O)O)CCC[C@]2(C)c3cc(O)ccc3CC[C@@H]12` [PODOCARIC ACID], for which the IC50 in experiment [1] and in [4] was greater than 50 µM in each case. Further, the EC50 in [2] and in [3] was greater than 50 µM throughout.
With `C[C@]1(C(=O)O)CCC[C@]2(C)c3cc(OP(=O)(O)Oc4ccc5c(c4)[C@@]4(C)CCC[C@](C)(C(=O)O)[C@@H]4CC5)ccc3CC[C@@H]12`, the half-inhibitory concentration (IC50) entry in [5] and in experiment [6] was “Not Active” throughout. Also, the EC50 result in [7] and in experiment [8] was “Not Active” throughout.
For the compound `CC(=O)Oc1ccc2c(c1)[C@@]1(C)CCCC(C)(C(=O)OC(=O)[C@@]3(C)CCC[C@]4(C)c5cc(OC(C)=O)ccc5CC[C@@H]34)[C@@H]1CC2` (stereo partly specified), the half-maximal inhibitory concentration (IC50) in experiment [1] and in experiment [4] was 0.002 µM throughout. Besides, the concentration for a half-maximal effect (EC50) in experiment [2] was found to be 0.002 µM; in experiment [3], 0.002 µM; in [9], 0.01 µM; in experiment [10], 0.01 µM.
Take `CC(C)CC[C@@H](O)[C@@H](C)[C@H]1CC[C@H]2[C@@H]3CC=C4C[C@@H](O)CC[C@]4(C)[C@H]3CC[C@]12C` [22(R)-HYDROXYCHOLESTEROL]: the inhibition in experiment [11] is 70%; in experiment [12], 60%. In addition, the half-maximal effective concentration (EC50) in experiment [2] and in experiment [3] was 15 µM in each case.
With `CC1OC(Oc2cc3c(cc2-c2cc4c(cc2O)[C@@]2(C)CCC[C@](C)(C(=O)O)[C@@H]2CC4)CC[C@H]2[C@@](C)(C(=O)O)CCC[C@]32C)C(O)C(O)C1O` (stereo partly specified), the half-maximal inhibitory concentration (IC50) entry in [5] and in [6] was “Not Active” in each case. In addition, the EC50 entry in experiment [7] and in experiment [8] was “Not Active” each time.
In turn, `CCCc1c(OCCCSc2ccc(CC(=O)O)cc2Cl)ccc2c(C(F)(F)F)noc12` showed a half-inhibitory concentration (IC50) in [1] of 0.0354 µM. Besides, the EC50 in experiment [2] turned out to be 0.0354 µM; in [10], 1.79 µM; in [10] (hek293), 1.79 µM.
